Assays:
[1] = target: T1, recombinant human FLAP protein (Homo sapiens, UniProt P20292); assay: FLAP binding assay (SPA, displacement of [125I]L-691,831); conditions: membranes of sf9 cells expressing recombinant human FLAP; [125I]L-691,831 probe; read-out: FLAP binding IC50
T1 construct: made in house; host or cells: Sf9 insect cells (100,000×g membrane pellet used)
T1 sequence (P20292 1-161): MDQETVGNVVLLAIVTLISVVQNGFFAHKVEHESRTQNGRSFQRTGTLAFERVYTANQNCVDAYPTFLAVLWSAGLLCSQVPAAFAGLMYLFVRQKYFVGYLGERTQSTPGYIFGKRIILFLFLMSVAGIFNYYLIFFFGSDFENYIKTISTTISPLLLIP
Summary of the method: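 Membranes from sf9 cells expressing human FLAP in pH 7.5 Tris buffer (MgCl2, EDTA, PMSF). Non-specific binding defined with 10 μM cold L-691,831.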

[2] = tested on: synthesis of LTB4 in human whole blood; assay: Human whole blood assay (inhibition of LTB4 synthesis, calcimycin stimulated); format: cell-based; conditions: heparinized human whole blood, calcimycin 20 μM, plasma LTB4
Summary of the method: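 LTB4 levels in plasma were measured by antibody-based HTRF after heparinized human whole blood, pretreated with compound (15 min, 37° C), was challenged with 20 μM calcimycin for 30 min at 37° C.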

Row | Structure (SMILES) | IC50 [1] [µM] | IC50 [2] [µM]
1 | CC(C)C(C)(c1ccc(-c2cnc(N)nc2)cc1)c1noc(C2(C)CCCC2)n1 (stereo not drawn) [Example 117, 5-(4-{3-methyl-2-[5-(1-methylcyclopentyl)-1,2,4-oxadiazol-3-yl]butan-2-yl}phenyl)pyrimidin-2-amine] | 0.031 | 1.2
2 | CNC(=O)Cn1cc(-c2nc(C(C)(c3ccc(-c4cnc(N)nc4)cc3)C3CCC3)no2)cn1 (stereo not drawn) [Example 98, 2-[4-(3-{1-[4-(2-aminopyrimidin-5-yl)phenyl]-1-cyclobutylethyl}-1,2,4-oxadiazol-5-yl)-1H-pyrazol-1-yl]-N-methylacetamide] | 0.012 | 0.57
3 | CC(C)C(C)(c1ccc(-c2cnc(N)nc2)cc1)c1noc(-c2ccc(C(N)=O)nc2)n1 (stereo not drawn) [Example 125, 5-(3-{2-[4-(2-aminopyrimidin-5-yl)phenyl]-3-methylbutan-2-yl}-1,2,4-oxadiazol-5-yl)pyridine-2-carboxamide] | 0.0015 | 0.29
4 | CC(C)C(C)(c1ccc(-c2cnc(N)nc2)cc1)c1noc(C2CCCCN2)n1 (stereo not drawn) [Example 114, 5-(4-{3-methyl-2-[5-(piperidin-2-yl)-1,2,4-oxadiazol-3-yl]butan-2-yl}phenyl)pyrimidin-2-amine] | 0.021 | 1.1
5 | CC(C)(O)CNc1ccc(-c2nc(C(C)(C)c3ccc(-c4cnc(N)nc4)cc3)no2)cn1 [Example 70, 1-{[5-(3-{2-[4-(2-aminopyrimidin-5-yl)phenyl]propan-2-yl}-1,2,4-oxadiazol-5-yl)pyridin-2-yl]amino}-2-methylpropan-2-ol] | 0.0071 | 0.59
6 | CC(C)C(C)(c1ccc(-c2cnc(N)nc2)cc1)c1noc(-c2cnn(CC(=O)N(C)C)c2)n1 (stereo not drawn) [Example 106, 2-[4-(3-{2-[4-(2-aminopyrimidin-5-yl)phenyl]-3-methylbutan-2-yl}-1,2,4-oxadiazol-5-yl)-1H-pyrazol-1-yl]-N,N-dimethylacetamide] | 0.0048 | 0.076
7 | COCCn1cc(-c2nc([C@](C)(c3ccc(-c4cnc(N)nc4)cc3)C3CCC3)no2)cn1 [Example 101, 5-{4-[(1S)-1-cyclobutyl-1-{5-[1-(2-methoxyethyl)-1H-pyrazol-4-yl]-1,2,4-oxadiazol-3-yl}ethyl]phenyl}pyrimidin-2-amine] | 0.28 | > 5
8 | CC(C)C(C)(c1ccc(-c2cnc(N)nc2)cc1)c1noc(C(C)(C)CC(=O)O)n1 (stereo not drawn) [Example 92, 3-(3-{2-[4-(2-aminopyrimidin-5-yl)phenyl]-3-methylbutan-2-yl}-1,2,4-oxadiazol-5-yl)-3-methylbutanoic acid] | 0.11 | > 5
9 | Cc1ncsc1-c1nc(C(C)(c2ccc(-c3cnc(N)nc3)cc2)C(C)C)no1 (stereo not drawn) [Example 141, 5-(4-{3-methyl-2-[5-(4-methyl-1,3-thiazol-5-yl)-1,2,4-oxadiazol-3-yl]butan-2-yl}phenyl)pyrimidin-2-amine] | 0.0015 | 0.53
10 | CC(C)[C@@](C)(c1ccc(-c2cnc(N)nc2)cc1)c1noc(-c2ccnn2C)n1 [Example 32, 5-(4-{(2S)-3-methyl-2-[5-(1-methyl-1H-pyrazol-5-yl)-1,2,4-oxadiazol-3-yl]butan-2-yl}phenyl)pyrimidin-2-amine] | 0.018 | 2.5
11 | CN(C)C(=O)Cn1cc(-c2nc(C(C)(c3ccc(-c4cnc(N)nc4)cc3)C3CC3)no2)cn1 (stereo not drawn) [Example 59, 2-[4-(3-{1-[4-(2-aminopyrimidin-5-yl)phenyl]-1-cyclopropylethyl}-1,2,4-oxadiazol-5-yl)-1H-pyrazol-1-yl]-N,N-dimethylacetamide] | 0.0011 | 0.076
12 | CC(C)[C@](C)(c1ccc(-c2cnc(N)nc2)cc1)c1noc(-c2cn[nH]c2)n1 [Example 77, 5-(4-{(2R)-3-methyl-2-[5-(1H-pyrazol-4-yl)-1,2,4-oxadiazol-3-yl]butan-2-yl}phenyl)pyrimidin-2-amine] | 0.0017 | 0.036
13 | Cn1cc(-c2nc([C@@](C)(c3ccc(-c4cnc(N)cn4)cc3)C3CC3)no2)cn1 [Example 184, 5-(4-{(R)-1-Cyclopropyl-1-[5-(1-methyl-1H-pyrazol-4-yl)-[1,2,4]oxadiazol-3-yl]-ethyl}-phenyl)-pyrazin-2-ylamine] | 0.002 | 0.023

Further lines, results first:

Row | IC50 [1] [µM] | IC50 [2] [µM] | Structure (SMILES)
14 | 0.01 | 0.13 | Cc1nc(N)nc(F)c1-c1ccc([C@](C)(c2noc(-c3cnn(CC(=O)N(C)C)c3)n2)C2CC2)cc1 [Example 298, 2-[4-(3-{(R)-1-[4-(2-Amino-4-fluoro-6-methyl-pyrimidin-5-yl)-phenyl]-1-cyclopropyl-ethyl}-[1,2,4]oxadiazol-5-yl)-pyrazol-1-yl]-N,N-dimethyl-acetamide]
15 | 0.016 | 2.1 | COc1cncc(-c2ccc(C(C)(c3noc(-c4cnn(C)c4)n3)C3CC3)cc2)c1 (stereo not drawn) [Example 286, 3-(4-{1-Cyclopropyl-1-[5-(1-methyl-1H-pyrazol-4-yl)-[1,2,4]oxadiazol-3-yl]-ethyl}-phenyl)-5-methoxy-pyridine]
16 | 0.0051 | 0.022 | C[C@@](c1ccc(-c2cnc(N)cn2)cc1)(c1noc(-c2cnn(C3COC3)c2)n1)C1CC1 [Example 265, 5-(4-{(R)-1-Cyclopropyl-1-[5-(1-oxetan-3-yl-1H-pyrazol-4-yl)-[1,2,4]oxadiazol-3-yl]-ethyl}-phenyl)-pyrazin-2-ylamine; compound with trifluoro-acetic acid]
17 | 0.0025 | 0.2 | CC(c1ccc(-c2cnc(N)nc2)cc1)(c1noc(N2CCC[C@H](O)C2)n1)C1CC1 (stereo partly drawn) [Example 288, (S)-1-(3-{1-[4-(2-Amino-pyrimidin-5-yl)-phenyl]-1-cyclopropyl-ethyl}-[1,2,4]oxadiazol-5-yl)-piperidin-3-ol]
18 | 0.0041 | 0.29 | CN(C)C(=O)Cn1cc(-c2nc(C(C)(c3ccc(-c4cnc5c(c4)OCCN5)cc3)C3CC3)no2)cn1 (stereo not drawn) [Example 239, 2-[4-(3-{1-Cyclopropyl-1-[4-(3,4-dihydro-2H-pyrido[3,2-b][1,4]oxazin-7-yl)-phenyl]-ethyl}-[1,2,4]oxadiazol-5-yl)-pyrazol-1-yl]-N,N-dimethyl-acetamide]
19 | 0.0035 | 0.11 | CN(C)C(=O)Cn1cc(-c2nc([C@@](C)(c3ccc(-c4cnc(N)nc4F)cc3)C3CC3)no2)cn1 [Example 293, 2-[4-(3-{(R)-1-[4-(2-Amino-4-fluoro-pyrimidin-5-yl)-phenyl]-1-cyclopropyl-ethyl}-[1,2,4]oxadiazol-5-yl)-pyrazol-1-yl]-N,N-dimethyl-acetamide]
20 | 0.019 | 0.43 | CN(C)C(=O)Cn1cc(-c2nc(C(C)(c3ccc(-c4cnc(N)c(C(F)(F)F)c4)cc3)C3CC3)no2)cn1 (stereo not drawn) [Example 246, 2-[4-(3-{1-[4-(6-Amino-5-trifluoromethyl-pyridin-3-yl)-phenyl]-1-cyclopropyl-ethyl}-[1,2,4]oxadiazol-5-yl)-pyrazol-1-yl]-N,N-dimethyl-acetamide]
21 | 0.0028 | 0.21 | CN(C)C(=O)Cn1cc(-c2nc([C@@](C)(c3ccc(-c4cnc5c(c4)OCCN5)cc3)C3CC3)no2)cn1 [Example 254, 2-[4-(3-{(R)-1-Cyclopropyl-1-[4-(3,4-dihydro-2H-pyrido[3,2-b][1,4]oxazin-7-yl)-phenyl]-ethyl}-[1,2,4]oxadiazol-5-yl)-pyrazol-1-yl]-N,N-dimethyl-acetamide]
22 | 0.09 | 1.2 | CNC1CCN(c2nc(C(C)(c3ccc(-c4cnc(N)nc4)cc3)C(C)C)no2)CC1 (stereo not drawn) [Example 217, 5-(4-{1,2-Dimethyl-1-[5-(4-methylamino-piperidin-1-yl)-[1,2,4]oxadiazol-3-yl]-propyl}-phenyl)-pyrimidin-2-ylamine]
23 | 0.028 | 0.26 | CC1(O)CN(c2nc(C(C)(c3ccc(-c4cnc(N)nc4)cc3)C3CC3)no2)C1 (stereo not drawn) [Example 276, 1-(3-{1-[4-(2-Amino-pyrimidin-5-yl)-phenyl]-1-cyclopropyl-ethyl}-[1,2,4]oxadiazol-5-yl)-3-methyl-azetidin-3-ol]
24 | 0.015 | 0.25 | CC(C)C(C)(c1ccc(-c2cnc(N)nc2)cc1)c1noc(N2CC(O)C2)n1 (stereo not drawn) [Example 200, 1-(3-{1-[4-(2-Amino-pyrimidin-5-yl)-phenyl]-1,2-dimethyl-propyl}-[1,2,4]oxadiazol-5-yl)-azetidin-3-ol]
25 | 0.0073 | 0.15 | Cc1nc(N)ncc1-c1ccc([C@](C)(c2noc(-c3cnn(CC(=O)N(C)C)c3)n2)C2CC2)cc1 [Example 257, 2-[4-(3-{(R)-1-[4-(2-Amino-4-methyl-pyrimidin-5-yl)-phenyl]-1-cyclopropyl-ethyl}-[1,2,4]oxadiazol-5-yl)-pyrazol-1-yl]-N,N-dimethyl-acetamide]
26 | 0.023 | 0.31 | CC(c1ccc(-c2cnc(N)nc2)cc1)(c1noc(-c2cncn2C2COC2)n1)C1CC1 (stereo not drawn) [Example 206, 5-(4-{1-Cyclopropyl-1-[5-(3-oxetan-3-yl-3H-imidazol-4-yl)-[1,2,4]oxadiazol-3-yl]-ethyl}-phenyl)-pyrimidin-2-ylamine]
27 | 0.016 | 0.17 | CC(C)C(C)(c1ccc(-c2cnc(N)nc2)cc1)c1noc(N2CCN(C3CC3)CC2)n1 (stereo not drawn) [Example 266, 5-(4-{1-[5-(4-Cyclopropyl-piperazin-1-yl)-[1,2,4]oxadiazol-3-yl]-1,2-dimethyl-propyl}-phenyl)-pyrimidin-2-ylamine]
